The record followed here is patent publication US10577363B2, “Substituted piperidine compounds” (EPIZYME, INC., priority 2014, dated 2020).

The target of experiment [1] is T1, SMYD3 (Homo sapiens (Human), UniProt Q9H7B4). The experiment in a line: SMYD3 cell assay (Trimethyl-MEKK2 In-Cell Western in 293T/17 cells). Format: cell-based. The text has this:
Trimethyl-MEKK2-in-Cell Western Assay
MEM/Glutamax medium, Optimem Reduced Serum medium, penicillin-streptomycin, 0.05% trypsin and 1×D-PBS were purchased from Life Technologies, Grand Island, N.Y., USA. PBS-10× was purchased from Ambion, Life Technologies, Grand Island, N.Y., USA. PBS with Tween 20 (PBST (10×)) was purchased from KPL, Gaithersburg, Md., USA. Tet System FBS-approved FBS US Source was purchased from Clontech, Mountain View, Calif., USA. Odyssey blocking buffer, 800CW goat anti-rabbit IgG (H+L) antibody, 680CW Goat anti-mouse IgG (H+L) and Licor Odyssey infrared scanner were purchased from Licor Biosciences, Lincoln, Nebr., USA. Tri-methyl-Lysine [A260]-MEKK2 antibody, MEKK2 and SMYD3 plasmids were made at Epizyme. Anti-flag monoclonal mouse antibody was purchased from Sigma, St. Louis, Mo., USA. Methanol was purchased from VWR, Franklin, Mass., USA. 10% Tween 20 was purchased from KPL, Inc., Gaithersburg, Md., USA. Fugene was purchased from Promega, Madison, Wis., USA. The Biotek ELx405 was purchased from BioTek, Winooski, Vt., USA. The multidrop combi was purchased from Thermo Scientific, Waltham, Mass., USA.
Cell Treatment, in Cell Western (ICW) for Detection of Trimethyl-Lysine-MEKK2 and MEKK2.
Plasmids were prepared for delivery to cells by first mixing 1350 μL Opti-MEM with Fugene (81 μL) in a sterile Eppendorf and incubated for five minutes at room temperature (RT). […] Entire volume of Opti-MEM/Fugene mixture was then added to a microfuge tube containing DNA plasmid, mixed and then incubated×15 minutes at RT. […] Medium was then removed, and cells were washed once with PBS in the flask. Trypsin 0.05% (3 mL) was added and cells incubated for three minutes. Room temperature MEM+10% Tet system FBS was added and cells were mixed gently, and counted using the Vi-cell. Cells were seeded at 100,000 cells/mL in 50 μL MEM/10% Tet FBS/Pen/Strep to a 384 well black/clear poly-D-lysine coated plate containing test agent diluted in DMSO. The final top concentration of test compound was 40 μM. […] Plates were incubated×30 minutes at RT in low-airflow area, followed by incubation at 37° C. under 5% CO2 for 24 hours. Medium was aspirated from all wells of assay plates prior to fixation and permeabilization with ice cold (−20° C.) methanol (90 μL/well) for ten minutes. Plates were rinsed with PBS three times on BioTek ELx405. PBS was removed with a final aspiration, and Odyssey blocking buffer (50 μL/well) was added to each well and incubated for one hour at RT. Primary antibody solution was prepared (anti-trimethyl-MEKK2 at 1:600 dilution plus mouse anti-flag antibody at 1:10,000 dilution in diluent (Odyssey Blocking buffer+0.1% Tween 20)) and 20 μL per well was dispensed using the Multidrop Combi. Assay plates were then sealed with foil, and incubated overnight at 4° C. Plates were washed five times with PBS-Tween (1×) on Biotek ELx405 and blotted on paper towel to remove excess reagent.
First, the ratio for each well was determined by:
Each plate included fourteen control wells of DMSO only treatment (Minimum Inhibition) as well as fourteen control wells for maximum inhibition (Background). The average of the ratio values for each control type was calculated and used to determine the percent inhibition for each test well in the plate. Reference compound was serially diluted two-fold in DMSO for a total of nine test concentrations, beginning at 40 μM.
Percent inhibition was calculated (below).
Non-linear regression curves were generated to calculate the IC50 and dose-response relationship using triplicate wells per concentration of compound.

Experiment [2] addresses T1, SMYD3. The experiment in a line: SMYD3 biochemical assay (SPA, 3H-SAM methylation of MEKK2 protein substrate). In a few lines: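 Native full-length human SMYD3 (E. coli-expressed, tags removed) was preincubated with compound for 30 min at room temperature in 25 mM Tris-Cl pH 8.0, 1 mM TCEP, 0.005% BSG, 0.005% Tween 20. Reaction was started with 3H-SAM plus GST-MEKK2, quenched with 100 uM unlabeled SAM, and read by SPA scintillation counting.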

Setting [3] is: 293T/17 cells, read-out: SMYD3 Cell IC50 (μM)*.
[4] abbreviates: read-out: SMYD3 Biochem IC50 (μM)*.
The mark [5] stands for this setting: read-out: SMYD3 Cell IC50 (μM)*.
[6] abbreviates: Table 1A, IC50 values are an average of n = 1 to n = 50, read-out: SMYD3 Cell IC50.
[7] abbreviates: average of n = 1 to n = 50, read-out: SMYD3 Biochem IC50.

Structures are written as SMILES. Structures can show the parent of a compound that is named as a salt.

T1 sequence (Q9H7B4 whole entry): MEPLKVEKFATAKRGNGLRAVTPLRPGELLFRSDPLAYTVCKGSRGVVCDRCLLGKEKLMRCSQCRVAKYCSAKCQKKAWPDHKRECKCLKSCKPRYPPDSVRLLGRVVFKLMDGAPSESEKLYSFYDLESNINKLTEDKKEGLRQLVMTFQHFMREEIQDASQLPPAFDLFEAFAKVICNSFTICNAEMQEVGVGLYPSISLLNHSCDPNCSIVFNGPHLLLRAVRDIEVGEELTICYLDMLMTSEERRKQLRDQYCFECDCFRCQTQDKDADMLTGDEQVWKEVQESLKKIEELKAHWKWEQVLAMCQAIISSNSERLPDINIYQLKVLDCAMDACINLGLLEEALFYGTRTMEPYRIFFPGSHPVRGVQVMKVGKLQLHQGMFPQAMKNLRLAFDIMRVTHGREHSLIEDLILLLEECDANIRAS

One may read the IC50 as the midpoint of a concentration-inhibition curve. In the case of `C[C@H]1C[C@@H](NC(=O)c2cc(C3CC3)on2)CCN1S(=O)(=O)CC1CCNCC1` (single isomer, unassigned) [Cpd. No. 417], the 50% inhibitory concentration (IC50) at SMYD3 [1] (setting [3]) was found to be 0.0508 µM; at SMYD3 [2] (setting [4]) it was 0.00307 µM.

Take `C[C@@H]1C[C@H](NC(=O)c2cc(C3CC3)on2)CCN1S(=O)(=O)CC1CCNCC1` (single isomer, unassigned) [Cpd. No. 418]: the IC50 was found to be 0.197 µM on SMYD3 [1] (setting [3]) and 0.0172 µM on SMYD3 [2] (setting [4]).

`O=C(N[C@@H]1C[C@H]2CC[C@@H](C1)N2S(=O)(=O)CCN1CCCC1)c1cc(C2CC2)on1` (single isomer, unassigned) [Cpd. No. 436]: the IC50 was 0.285 µM at SMYD3 [1] (setting [3]) and 0.0613 µM at SMYD3 [2] (setting [4]).

`CC(C)c1cc(C[C@@H](CN)C(=O)N2CCC(NC(=O)c3cc(C4CC4)on3)CC2)ccc1O` [Cpd. No. 121, N-[1-[(2S)-3-amino-2-[[4-hydroxy-3-(propan-2-yl)phenyl]methyl]propanoyl]piperidin-4-yl]-5-cyclopropyl-1,2-oxazole-3-carboxamide hydrochloride salt]: the IC50 on SMYD3 [1] (setting [5]) was found to be 0.68 µM; at SMYD3 [2] (setting [4]), 0.00957 µM.

Turning to `NCCCS(=O)(=O)N1C2CCCC1CC(NC(=O)c1cc(C3CC3)on1)C2` (stereo not shown) [Cpd. No. 181, N-[9-[(3-aminopropane)sulfonyl]-9-azabicyclo[3.3.1]nonan-3-yl]-5-cyclopropyl-1,2-oxazole-3-carboxamide hydrochloride salt], the half-inhibitory concentration (IC50) on SMYD3 [1] (setting [5]) came out at 0.566 µM; on SMYD3 [2] (setting [4]), 0.0927 µM.

As for `C[C@H]1C[C@@H](NC(=O)c2cc(C3CC3)on2)CCN1S(=O)(=O)N1CCN(C)CC1` [Cpd. No. 279, 5-cyclopropyl-N-[(2S,4S)-2-methyl-1-(4-methylpiperazine-1-sulfonyl)piperidin-4-yl]-1,2-oxazole-3-carboxamide], the IC50 at SMYD3 [1] (setting [3]) came to 0.266 µM; on SMYD3 [2] (setting [4]) it was 0.0815 µM.

As for `O=C(N[C@H]1CCN(C(=O)CC2CCNCC2)[C@@H](Cc2ccccc2)C1)c1cc(C2CC2)on1` [Cpd. No. 348, N-((2S,4S)-2-benzyl-1-(2-(piperidin-4-yl)acetyl)piperidin-4-yl)-5-cyclopropylisoxazole-3-carboxamide hydrochloride], the IC50 on SMYD3 [1] (setting [3]) is 0.838 µM; at SMYD3 [2] (setting [4]), 0.0225 µM.

Turning to `C[C@H]1CN(S(=O)(=O)CCCN)CC[C@H]1NC(=O)c1cc(C2CC2)on1` [Cpd. No. 386, N-((3S,4R)-1-(3-aminopropylsulfonyl)-3-methylpiperidin-4-yl)-5-cyclopropylisoxazole-3-carboxamide], the 50% inhibitory concentration (IC50) was 0.34 µM at SMYD3 [1] and 0.0282 µM on SMYD3 [2] (setting [4]).

With `C[C@@H]1CN(C(=O)[C@H]2CC[C@H](N)CC2)[C@H](C)C[C@@H]1NC(=O)c1cc(C2CC2)on1` [Cpd. No. 420, N-((2R,4S,5R)-1-((1r,4R)-4-aminocyclohexanecarbonyl)-2,5-dimethylpiperidin-4-yl)-5-cyclopropylisoxazole-3-carboxamide], the results for the IC50 at SMYD3 [1] (setting [3]) and on SMYD3 [2] (setting [4]) were 0.205 µM and 0.0113 µM, respectively.

As for `C[C@H]1C[C@@H](NC(=O)c2cc(C3CC3)on2)CCN1S(=O)(=O)c1ccc(NCCN2CCOCC2)nc1` [Cpd. No. 458, 5-cyclopropyl-N-((2S,4S)-2-methyl-1-(6-(2-morpholinoethylamino)pyridin-3-ylsulfonyl)piperidin-4-yl)isoxazole-3-carboxamide dihydrochloride], the results for the IC50 on SMYD3 [1] (setting [3]) and on SMYD3 [2] (setting [4]) were 0.581 µM and 0.132 µM, respectively.

On to `C[C@@H]1C[C@H](NC(=O)c2cc(C3CC3)on2)CCN1C(=O)c1ccc(C2(N)CCC2)cc1` [compound 479, N-((2R,4R)-1-(4-(1-aminocyclobutyl)benzoyl)-2-methylpiperidin-4-yl)-5-cyclopropylisoxazole-3-carboxamide], for which the IC50 at SMYD3 [1] (setting [3]) is 2.03 µM.

Consider `O=C(N[C@@H]1C[C@H]2CC[C@@H](C1)N2S(=O)(=O)c1ccc2[nH]c(=O)[nH]c2c1)c1cc(C2CC2)on1` [compound 494, 5-cyclopropyl-N-((1R,3s,5S)-8-((2-oxo-2,3-dihydro-1H-benzo[d]imidazol-5-yl)sulfonyl)-8-azabicyclo[3.2.1]octan-3-yl)isoxazole-3-carboxamide], for which the IC50 at SMYD3 [1] (setting [6]) came out at 5.18 µM.

Turning to `CC(C)[C@H]1C[C@@H](NC(=O)c2cc(C3CC3)on2)CCN1S(=O)(=O)CCCN` [compound 501, N-((2R,4S)-1-((3-aminopropyl)sulfonyl)-2-isopropylpiperidin-4-yl)-5-cyclopropylisoxazole-3-carboxamide], the IC50 at SMYD3 [1] (setting [6]) is 4.49 µM.

On to `C[C@@H]1CN(S(=O)(=O)CCCNCc2ccccc2)[C@H](C)C[C@@H]1NC(=O)c1cc(C2CC2)on1` [compound 681, N-((2R,4S,5R)-1-((3-(benzylamino)propyl)sulfonyl)-2,5-dimethylpiperidin-4-yl)-5-cyclopropylisoxazole-3-carboxamide], for which the 50% inhibitory concentration (IC50) at SMYD3 [1] (average of n = 1 to n = 50, read-out: SMYD3 Cell IC50) is 0.93 µM.

Regarding `Nc1cccc(S(=O)(=O)N2[C@@H]3CCC[C@H]2C[C@H](NC(=O)c2cc(C4CC4)on2)C3)n1` [compound 740, N-((1R,3s,5S)-9-((6-aminopyridin-2-yl)sulfonyl)-9-azabicyclo[3.3.1]nonan-3-yl)-5-cyclopropylisoxazole-3-carboxamide], the IC50 on SMYD3 [2] (setting [7]) is 0.498 µM.

`Cc1ccnc(S(=O)(=O)N2CC[C@H](NC(=O)c3cc(C4CC4)on3)C[C@@H]2C)c1` [compound 741, 5-cyclopropyl-N-((2S,4S)-2-methyl-1-((4-methylpyridin-2-yl)sulfonyl)piperidin-4-yl)isoxazole-3-carboxamide]: on SMYD3 [2] (setting [7]), the IC50 turned out to be 0.512 µM.

For `CC1(C(=O)N2CCC(NC(=O)c3cc(C4CC4)on3)CC2)CCNCC1` [compound 760, 5-cyclopropyl-N-(1-(4-methylpiperidine-4-carbonyl)piperidin-4-yl)isoxazole-3-carboxamide], the 50% inhibitory concentration (IC50) on SMYD3 [2] (setting [7]) was found to be 0.742 µM.

Take `Cc1ccc(S(=O)(=O)N2C3CCC[C@@H]2C[C@@H](NC(=O)c2cc(C4CC4)on2)C3)nc1` [compound 763, 5-cyclopropyl-N-((1R,3S)-9-((5-methylpyridin-2-yl)sulfonyl)-9-azabicyclo[3.3.1]nonan-3-yl)isoxazole-3-carboxamide]: the IC50 on SMYD3 [2] (setting [7]) is 0.77 µM.

Take `C[C@H]1C[C@@H](NC(=O)c2cc(C3CC3)on2)CCN1S(=O)(=O)C[C@H]1CCCNC1` [compound 854, 5-cyclopropyl-N-((2S,4S)-2-methyl-1-((((S)-piperidin-3-yl)methyl)sulfonyl)piperidin-4-yl)isoxazole-3-carboxamide]: the IC50 on SMYD3 [2] (read-out: SMYD3 Biochem IC50*) turned out to be 0.00692 µM.

Take `C[C@H]1C[C@@H](NC(=O)c2cc(C3CC3)on2)CCN1S(=O)(=O)C[C@@H]1CCCNC1` [compound 875, 5-cyclopropyl-N-((2S,4S)-2-methyl-1-((((R)-piperidin-3-yl)methyl)sulfonyl)piperidin-4-yl)isoxazole-3-carboxamide]: the IC50 at SMYD3 [2] (read-out: SMYD3 Biochem IC50*) was 0.01 µM.

Consider `O=C(N[C@H]1C[C@H]2CC[C@@H](C1)N2S(=O)(=O)N1CCNCC1Cc1ccccc1)c1cc(C2CC2)on1` (stereo partly drawn) [compound 940, N-((1R,3r,5S)-8-((2-benzylpiperazin-1-yl)sulfonyl)-8-azabicyclo[3.2.1]octan-3-yl)-5-cyclopropylisoxazole-3-carboxamide], for which the IC50 at SMYD3 [2] (read-out: SMYD3 Biochem IC50*) was 0.0475 µM.
